Assay results published in article PMC3242765, “Inhibitors of Alphavirus Entry and Replication Identified with a Stable Chikungunya Replicon Cell Line and Virus-Based Assays” (PLoS ONE, 2011).

System: SFV-Rluc
Settings: for SFV replication % left: primary screening of chemical libraries, compounds tested at 50 µM; for % left (remaining SFV replication): Supplementary Table 2, moderately active compounds (25 - 60% remaining), primary screen at 50 µM

`CCN(CC)CCCC(C)Nc1ccnc2cc(Cl)ccc12.O=P(O)(O)O.O=P(O)(O)O` (stereo not shown) [PC-044] was tested, and the “SFV replication % left” value was 12.2%.
With `NS(=O)(=O)c1cc2c(cc1Cl)N=CNS2(=O)=O` [PC-045] the “SFV replication % left” value was 90.3%.
In the case of `CN(C)CC/C=C1/c2ccccc2Sc2ccc(Cl)cc21.Cl` [PC-047], the “SFV replication % left” value was 90.3%.
In the case of `O=C(O)c1cc(-c2ccccc2)nc2ccccc12` [PC-048], the “SFV replication % left” value was 65.1%.
In the case of `Oc1c(I)cc(Cl)c2cccnc12` [PC-049], the “SFV replication % left” value was 71.9%.
With `Cl.Cl.OCCN1CCN(CCC=C2c3ccccc3Sc3ccc(Cl)cc32)CC1` [PC-050] the “% left (remaining SFV replication)” value was 55.2% and the “SFV replication % left” value was 55.2%.
In the case of `CC(C)NCC(O)c1ccccc1Cl.Cl.O` (stereo not shown) [PC-051], the “SFV replication % left” value was 63.7%.
`O=S(=O)(O)NC1CCCCC1` [PC-053] was tested, and the “SFV replication % left” value was 74.9%.
With `C[C@H](CCC(=O)O)[C@H]1CC[C@H]2[C@@H]3CC[C@@H]4C[C@H](O)CC[C@]4(C)[C@H]3C[C@H](O)[C@]12C` [PC-054] the “SFV replication % left” value was 86.5%.
For `C#CCN(C)[C@H](C)Cc1ccccc1.Cl` [PC-055], the “% left (remaining SFV replication)” value was 57.6% and the “SFV replication % left” value was 57.0%.
In the case of `Cc1cc(N)c2ccccc2[n+]1CCCCCCCCCC[n+]1c(C)cc(N)c2ccccc21.[Cl-].[Cl-]` [PC-056], the “SFV replication % left” value was 62.5%.
In the case of `O=C1CN=C(c2ccccc2F)c2cc(Cl)ccc2N1` [PC-057], the “SFV replication % left” value was 68.5%.
For `CN(C)CC[C@@H](c1ccc(Br)cc1)c1ccccn1.O=C(O)/C=C\C(=O)O` [PC-058], the “SFV replication % left” value was 69.6%.
In the case of `CN(C)CC[C@@H](c1ccc(Cl)cc1)c1ccccn1.O=C(O)/C=C\C(=O)O` [PC-059], the “SFV replication % left” value was 68.1%.
In the case of `CN1C(=O)CN=C(c2ccccc2)c2cc(Cl)ccc21` [PC-060], the “SFV replication % left” value was 73.6%.
With `CC(C)NCC(O)c1ccc(Cl)c(Cl)c1.Cl` (stereo not shown) [PC-062] the “SFV replication % left” value was 49.6%.
For `O=c1oc2ccccc2c(O)c1Cc1c(O)c2ccccc2oc1=O` [PC-063], the “SFV replication % left” value was 65.6%.
For `CCN(CC)C(C)C(=O)c1ccccc1.Cl` (stereo not shown) [PC-064], the “SFV replication % left” value was 47.1%.
`C[C@H]1O[C@@H](O[C@H]2[C@@H](O)C[C@H](O[C@H]3[C@@H](O)C[C@H](O[C@H]4CC[C@@]5(C)[C@H](CC[C@@H]6[C@@H]5C[C@@H](O)[C@]5(C)[C@@H](C7=CC(=O)OC7)CC[C@]65O)C4)O[C@@H]3C)O[C@@H]2C)C[C@H](O)[C@@H]1O` [PC-065] was tested, and the “SFV replication % left” value was 141.9%.
With `O=C1c2c(O)cccc2Cc2cccc(O)c21` [PC-066] the “SFV replication % left” value was 27.2%.
With `CN(C)CCOC(c1ccccc1)c1ccccc1.Cl` [PC-067] the “SFV replication % left” value was 41.0%.
With `O=C1NC(=O)C(c2ccccc2)(c2ccccc2)N1` [PC-068] the “SFV replication % left” value was 66.3%.
In the case of `Cc1c(N(C)CS(=O)(=O)[O-])c(=O)n(-c2ccccc2)n1C.[Na+]` [PC-069], the “SFV replication % left” value was 86.0%.
For `CN(C)CCC=C1c2ccccc2COc2ccccc21.Cl` [PC-070], the “SFV replication % left” value was 21.6%.
In the case of `CCOc1ccc(NC(N)=O)cc1` [PC-071], the “SFV replication % left” value was 103.3%.
`CC[C@H]1CN2CCc3cc(OC)c(OC)cc3[C@@H]2C[C@@H]1C[C@H]1NCCc2cc(OC)c(OC)cc21.Cl.Cl` [PC-072] was tested, and the “SFV replication % left” value was 63.1%.
In the case of `CCN(CC)C(=O)c1ccc(O)c(OC)c1` [PC-073], the “SFV replication % left” value was 85.5%.
`CCN(CC)C(C)CN1c2ccccc2Sc2ccccc21.Cl` (stereo not shown) [PC-074] was tested, and the “SFV replication % left” value was 20.1%.
For `CCOC(=O)c1ccc(O)cc1` [PC-075], the “SFV replication % left” value was 127.8%.
With `CCC(N)C(O)c1ccc(O)c(O)c1` (stereo not shown) [PC-076] the “SFV replication % left” value was 126.8%.
With `C#C[C@]1(O)CC[C@H]2[C@@H]3CCc4cc(O)ccc4[C@H]3CC[C@@]21C` [PC-077] the “SFV replication % left” value was 11.7%.
For `CCNCC(O)c1cccc(O)c1` (stereo not shown) [PC-078], the “SFV replication % left” value was 116.8%.
`CC(C(=O)[O-])c1cccc(Oc2ccccc2)c1.CC(C(=O)[O-])c1cccc(Oc2ccccc2)c1.[Ca+2]` (stereo not shown) [PC-080] was tested, and the “SFV replication % left” value was 87.6%.
For `Br.CC(Cc1ccc(O)cc1)NCC(O)c1cc(O)cc(O)c1` (stereo not shown) [PC-081], the “SFV replication % left” value was 106.6%.
With `Cl.Cl.OCCN1CCN(CC/C=C2/c3ccccc3Sc3ccc(C(F)(F)F)cc32)CC1` [PC-082] the “SFV replication % left” value was 92.6%.
In the case of `Nc1ccc(Cl)cc1C(=O)c1ccccc1F` [PC-083], the “SFV replication % left” value was 167.4%.
For `O=C(O)/C=C\C(=O)O.O=C(O)/C=C\C(=O)O.OCCN1CCN(CCCN2c3ccccc3Sc3ccc(C(F)(F)F)cc32)CC1` [PC-084], the “SFV replication % left” value was 98.9%.
`Nc1nc2ncc(CNc3ccc(C(=O)N[C@@H](CCC(=O)O)C(=O)O)cc3)nc2c(=O)[nH]1` [PC-085] was tested, and the “SFV replication % left” value was 100.0%.
`COc1ccccc1OCC(O)CO` (stereo not shown) [PC-086] was tested, and the “SFV replication % left” value was 124.5%.
For `CN1C(=O)NC(=O)C(C)(C2=CCCCC2)C1=O` (stereo not shown) [PC-087], the “SFV replication % left” value was 121.3%.
With `Oc1ccc(C(O)CNCCCCCCNCC(O)c2ccc(O)c(O)c2)cc1O` (stereo not shown) [PC-088] the “SFV replication % left” value was 124.9%.
`NCCCS(=O)(=O)O` [PC-090] was tested, and the “SFV replication % left” value was 118.7%.
In the case of `NS(=O)(=O)c1cc2c(cc1Cl)NCNS2(=O)=O` [PC-091], the “SFV replication % left” value was 121.2%.
For `CC(=O)OCC(=O)[C@@]1(O)CC[C@H]2[C@@H]3CCC4=CC(=O)CC[C@]4(C)[C@H]3[C@@H](O)C[C@@]21C` [PC-092], the “SFV replication % left” value was 116.8%.
For `CCN(CCO)CCCC(C)Nc1ccnc2cc(Cl)ccc12.O=S(=O)(O)O` (stereo not shown) [PC-093], the “SFV replication % left” value was 128.9%.
With `CNC(C)C(O)c1ccc(O)cc1` (stereo not shown) [PC-094] the “SFV replication % left” value was 94.4%.
`CC(CN1c2ccccc2Sc2ccccc21)[N+](C)(C)CCO.[Cl-]` (stereo not shown) [PC-096] was tested, and the “SFV replication % left” value was 102.2%.
For `Cl.Cl.OCCOCCN1CCN(C(c2ccccc2)c2ccc(Cl)cc2)CC1` (stereo not shown) [PC-097], the “SFV replication % left” value was 98.3%.
For `CC(C)Cc1ccc(CC(=O)O)cc1` [PC-098], the “SFV replication % left” value was 102.2%.
`CC(C)Cc1ccc(C(C)C(=O)O)cc1` (stereo not shown) [PC-099] was tested, and the “SFV replication % left” value was 92.8%.
With `O[C@H]1[C@H](O)[C@@H](O)[C@H](O)[C@@H](O)[C@H]1O` [PC-100] the “SFV replication % left” value was 106.0%.
With `CCC(NC(C)C)C(O)c1ccc(O)c(O)c1` (stereo not shown) [PC-101] the “SFV replication % left” value was 90.7%.
For `CC(C)NCC(O)c1ccc(O)c(O)c1.CC(C)NCC(O)c1ccc(O)c(O)c1.O.O.O=S(=O)(O)O` (stereo not shown) [PC-102], the “SFV replication % left” value was 110.9%.
For `CC(C)NCC(O)c1ccc(O)c(O)c1.Cl` (stereo not shown) [PC-103], the “SFV replication % left” value was 112.5%.
With `CC(CCc1ccccc1)NCC(O)c1ccc(O)c(C(N)=O)c1.Cl` (stereo not shown) [PC-105] the “SFV replication % left” value was 72.5%.
`O=C1Nc2ccc(Cl)cc2C(c2ccccc2Cl)=NC1O` (stereo not shown) [PC-106] was tested, and the “SFV replication % left” value was 98.2%.
In the case of `CN1CCN=C(c2ccccc2)c2cc(Cl)ccc21` [PC-107], the “SFV replication % left” value was 87.5%.
`Cc1cccc(Nc2ccccc2C(=O)O)c1C` [PC-108] was tested, and the “SFV replication % left” value was 103.5%.
In the case of `CC1=CC(=O)c2ccccc2C1=O` [PC-109], the “SFV replication % left” value was 28.3%.
In the case of `Cc1ccccc1OCC(O)CO` (stereo not shown) [PC-110], the “SFV replication % left” value was 79.2%.
For `CNC(C)(C)Cc1ccccc1.CNC(C)(C)Cc1ccccc1.O=S(=O)(O)O` [PC-111], the “SFV replication % left” value was 81.8%.
With `Cc1cccc(C)c1NC(=O)C1CCCCN1C.Cl` (stereo not shown) [PC-112] the “SFV replication % left” value was 74.9%.
With `CN1CCCCC1CCN1c2ccccc2Sc2ccc([S+](C)[O-])cc21.O=S(=O)(O)c1ccccc1` (stereo not shown) [PC-113] the “SFV replication % left” value was 93.8%.
For `C[C@H](N)[C@H](O)c1cccc(O)c1.O=C(O)C(O)C(O)C(=O)O` [PC-114], the “SFV replication % left” value was 96.5%.
For `CN1CCC(CN2c3ccccc3Sc3ccccc32)C1` (stereo not shown) [PC-115], the “SFV replication % left” value was 22.5%.
